Where a name gives a salt, the structure may show the parent alone.

The results in this text go back to patent publication US10947213B1 (Merck Patent GmbH, priority 2015, dated 2021).

This assay addresses T1, TLR7/NFKb HEK cells (Homo sapiens, UniProt Q9NYK1).
T1 construct: expressed in transfected cells; host or cells: HEK cells (TLR7/NFKb reporter line)
T1 sequence (Q9NYK1 27-1049): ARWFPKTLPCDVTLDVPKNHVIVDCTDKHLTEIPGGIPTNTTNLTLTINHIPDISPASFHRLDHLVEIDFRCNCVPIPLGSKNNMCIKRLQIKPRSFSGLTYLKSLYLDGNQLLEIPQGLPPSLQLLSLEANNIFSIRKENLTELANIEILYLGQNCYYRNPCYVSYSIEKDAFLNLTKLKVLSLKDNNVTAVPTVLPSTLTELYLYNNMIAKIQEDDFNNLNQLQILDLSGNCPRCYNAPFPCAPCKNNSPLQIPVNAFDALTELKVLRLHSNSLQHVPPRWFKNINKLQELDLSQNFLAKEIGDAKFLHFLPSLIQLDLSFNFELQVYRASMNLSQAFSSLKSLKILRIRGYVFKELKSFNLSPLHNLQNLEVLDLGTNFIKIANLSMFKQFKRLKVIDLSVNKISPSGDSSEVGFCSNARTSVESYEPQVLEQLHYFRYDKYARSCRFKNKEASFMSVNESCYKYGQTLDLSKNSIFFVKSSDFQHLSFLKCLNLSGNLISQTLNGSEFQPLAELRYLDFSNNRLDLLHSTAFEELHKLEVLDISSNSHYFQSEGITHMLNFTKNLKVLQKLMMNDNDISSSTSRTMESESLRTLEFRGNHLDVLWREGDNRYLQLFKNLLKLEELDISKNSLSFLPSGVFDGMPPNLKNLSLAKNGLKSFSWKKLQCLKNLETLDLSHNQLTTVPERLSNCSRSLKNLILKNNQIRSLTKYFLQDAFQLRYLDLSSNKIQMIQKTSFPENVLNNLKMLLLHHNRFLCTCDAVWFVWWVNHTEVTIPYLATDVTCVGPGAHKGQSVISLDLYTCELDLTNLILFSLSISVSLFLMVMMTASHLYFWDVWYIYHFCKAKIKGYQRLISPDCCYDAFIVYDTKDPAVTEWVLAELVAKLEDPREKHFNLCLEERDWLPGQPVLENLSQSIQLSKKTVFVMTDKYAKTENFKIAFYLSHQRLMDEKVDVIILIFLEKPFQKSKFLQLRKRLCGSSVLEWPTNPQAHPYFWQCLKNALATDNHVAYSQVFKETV
In words: HEK Cell Assay (TLR7/NFKb reporter, Steady-Glo luciferase readout). Particulars: 30 min compound preincubation, then R*48 agonist for 5 hours, read-out: Potency. It counts as cell-based. In short, it runs like this: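 Steady-Glo luminescence after 5 h stimulation with R*48 agonist, following 30 min compound preincubation. Assay run in HEK cells carrying a TLR7/NFKb luciferase reporter, plated at 5000 cells/well and grown 24 h at 37° C (10% CO2) before treatment.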
`C[C@H]1C[C@@H](NC(=O)C2CCCN2C)CN(c2ccnc3nccnc23)C1` (stereo partly drawn) [Compound 172, Methyl-N-[(3R,5S)-5-methyl-1-[pyrido[2,3-b]pyrazin-8-yl]piperidin-3-yl]pyrrolidine-2-carboxamide]: the IC50 fell in the range of 1000 to 10000 nM. Consider `C[C@H]1C[C@@H](NC(=O)CN2CCCN(C)CC2)CN(c2ccc(C(F)(F)F)c3nccnc23)C1` [Compound 362, 2-(4-methyl-1,4-diazepan-1-yl)-N-[(3R,5S)-5-methyl-1-[8-(trifluoromethyl)quinoxalin-5-yl]piperidin-3-yl]acetamide], for which the IC50 was < 1000 nM. Regarding `C[C@H]1C[C@@H](N)CN(c2ccc(O)c3ncccc23)C1` [Compound 200, 5-[(3R,5S)-3-amino-5-methylpiperidin-1-yl]quinolin-8-ol hydrochloride], the IC50 is < 1000 nM. As to `C[C@H]1C[C@@H](NC(=O)CN2CCC(C)(C)C2)CN(c2ccc(C(F)(F)F)c3ncccc23)C1` [Compound 573, 2-(3,3-Dimethyl-pyrrolidin-1-yl)-N-[(3R,5S)-5-methyl-1-(8-trifluoromethyl-quinolin-5-yl)-piperidin-3-yl]-acetamide], the IC50 is < 1000 nM. For `CN1CCC(CC(=O)NC2CN(c3ccc(C#N)c4nccnc34)CC(F)(F)C2)CC1` (racemic) [Compound 504, N-[1-(8-Cyano-quinoxalin-5-yl)-5,5-difluoro-piperidin-3-yl]-2-(1-methyl-piperidin-4-yl)-acetamide], the IC50 was < 1000 nM.

Consider `CCN(CC)CCNCC1CCN(c2ccnc3cc(C(F)(F)F)ccc23)CC1` [Compound 376, N,N-Diethyl-N′-[1-(7-trifluoromethyl-quinolin-4-yl)-piperidin-4-ylmethyl]-ethane-1,2-diamine], for which the IC50 lay in the range of 1000 to 10000 nM. To `C[C@H]1C[C@@H](NC(=O)[C@H](N)CO)CN(c2ccc(C#N)c3nccnc23)C1` [Compound 106, (2R)-2-amino-N-[(3R,5S)-1-(8-cyanoquinoxalin-5-yl)-5-methylpiperidin-3-yl]-3-hydroxypropanamide] belongs < 1000 nM. As to `CC(C(=O)N[C@@H]1C[C@H](C)CN(c2ccc(C#N)c3nccnc23)C1)N1CCC(O)CC1` (stereo partly drawn) [Compound 275, N-[(3R,5S)-1-(8-cyanoquinoxalin-5-yl)-5-methylpiperidin-3-yl]-2-(4-hydroxypiperidin-1-yl)propanamide], the IC50 is < 1000 nM. The figure for `CC1(C)C[C@@H](N)CN(c2ccc(C#N)c3nccnc23)C1` [Compound 210, 8-[(5R)-5-amino-3,3-dimethylpiperidin-1-yl]quinoxaline-5-carbonitrile hydrochloride] is < 1000 nM; for `CCN(C)CCNC(=O)C1CCN(c2ccc(C(F)(F)F)c3ncccc23)CC1` [Compound 436, 1-(8-Trifluoromethyl-quinolin-5-yl)-piperidine-4-carboxylic acid [2-(ethyl-methyl-amino)-ethyl]-amide] it is < 1000 nM.

For `C[C@H]1C[C@@H](NC2CCC(O)CC2)CN(c2ccc(C#N)c3nccnc23)C1` (single isomer, unassigned) [Compound 136], the IC50 is < 1000 nM. To `C[C@@H]1C[C@@H](C(=O)NCC2CCN(C)CC2)CN(c2ccc(C(F)(F)F)c3ncccc23)C1` (relative stereo) [Compound 548, trans-5-Methyl-1(8-trifluoromethyl-quinolin-5-yl)-piperidine-3-carboxylic acid (1-methyl-piperidin-4-ylmethyl)-amide] belongs < 1000 nM; to `C[C@H]1C[C@@H](NC(=O)Cc2cn(C)cn2)CN(c2ccc(C#N)c3nccnc23)C1` [Compound 132, N-[(3R,5S)-1-(8-cyanoquinoxalin-5-yl)-5-methylpiperidin-3-yl]-2-(1-methyl-1H-imidazol-4-yl)acetamide], < 1000 nM. To `CCN(CC)CCC(=O)NC1CCN(c2ccnc3nccnc23)CC1` [Compound 396, 3-Diethylamino-N-(1-pyrido[2,3-b]pyrazin-8-yl-piperidin-4-yl)-propionamide] belongs > 10000 nM.

As for `C[C@H]1C[C@@H](NC(=O)CN(C)C)CN(c2ccc(F)c3ncccc23)C1` [Compound 469, 2-Dimethylamino-N-[(3R,5S)-1-(8-fluoro-quinolin-5-yl)-5-methyl-piperidin-3-yl]-acetamide], the IC50 was 1000 to 10000 nM. To `C[C@H]1C[C@@H](NC(=O)CC(C)(C)C)CN(c2ccc(C(N)=O)c3ncccc23)C1` [Compound 182, 5-[(3R,5S)-3-(3,3-dimethylbutanamido)-5-methylpiperidin-1-yl]quinoline-8-carboxamide] belongs 1000 to 10000 nM. To `C[C@H]1C[C@@H](NC(=O)N2C[C@@H](F)[C@@H](F)C2)CN(c2ccc(C(F)(F)F)c3ncccc23)C1` [Compound 583, (3R,4S)-3,4-Difluoro-pyrrolidine-1-carboxylic Acid [(3R,5S)-5-methyl-1-(8-trifluoromethyl-quinolin-5-yl)-piperidin-3-yl]-amide] belongs 1000 to 10000 nM; to `N#Cc1ccc(N2C[C@H](NC(=O)N3C[C@@H](F)[C@@H](F)C3)C[C@H](C(F)(F)F)C2)c2cccnc12` [Compound 581, (3R,4S)-3,4-Difluoro-pyrrolidine-1-carboxylic Acid [(3R,5S)-1-(8-cyano-quinolin-5-yl)-5-trifluoromethyl-piperidin-3-yl]-amide], 1000 to 10000 nM; to `CC(C(=O)N[C@@H]1C[C@H](C)CN(c2ccc(C(F)F)c3nccnc23)C1)N1CC(O)C1` (stereo partly drawn) [Compound 321, N-[(3R,5S)-1-[8-(difluoromethyl)quinoxalin-5-yl]-5-methylpiperidin-3-yl]-2-(3-hydroxyazetidin-1-yl)propanamide], 1000 to 10000 nM.

In the case of `N#Cc1ccc(N2CC(NC(=O)C(N)C(F)(F)F)CC(C3CC3)C2)c2nccnc12` (single isomer, unassigned) [Compound 177], the IC50 lay within 1000 to 10000 nM.

Regarding `CC(C)[C@H](O)C(=O)NC1CC(C(F)(F)F)CN(c2ccc(C#N)c3nccnc23)C1` (single isomer, unassigned) [Compound 87], the IC50 was < 1000 nM. As for `N[C@H]1C[C@@H](C2CC2)CN(c2ccc(F)c3nccnc23)C1` (relative stereo) [Compound 366, cis-5-cyclopropyl-1-(8-fluoroquinoxalin-5-yl)piperidin-3-amine], the IC50 lay in the range of 1000 to 10000 nM. To `CCNC(=O)C1CCN(C[C@H]2CN(c3ccnc4nccnc34)C[C@@H](C)O2)CC1` [Compound 62, N-ethyl-1-(((2S,6R)-6-methyl-4-(pyrido[2,3-b]pyrazin-8-yl)morpholin-2-yl)methyl)piperidine-4-carboxamide] belongs 1000 to 10000 nM. The figure for `COCCN[C@@H]1C[C@H](C)CN(c2ccc(OC)c3ncccc23)C1` [Compound 190, (3R,5S)—N-(2-methoxyethyl)-1-(8-methoxyquinolin-5-yl)-5-methylpiperidin-3-amine] is < 1000 nM. The figure for `CC(C)(C(=O)N[C@@H]1C[C@H](C(F)(F)F)CN(c2ccc(C#N)c3ncccc23)C1)N1CCCCC1` [Compound 576, N-[(3R,5S)-1-(8-Cyano-quinolin-5-yl)-5-trifluoromethyl-piperidin-3-yl]-2-piperidin-1-yl-isobutyramide] is < 1000 nM. Turning to `N#Cc1ccc(N2CC(NC3CCC(O)CC3)CC(C(F)(F)F)C2)c2nccnc12` (single isomer, unassigned) [Compound 92, cis,trans-8-(-3-((4-hydroxycyclohexyl)amino)-5-(trifluoromethyl)piperidin-1-yl)quinoxaline-5-carbonitrile], the IC50 was in the range of 1000 to 10000 nM. To `OC1CCC(NC2CC(C(F)(F)F)CN(c3ccnc4nccnc34)C2)CC1` (single isomer, unassigned) [Compound 94, trans,cis-4-((1-(pyrido[2,3-b]pyrazin-8-yl)-5-(trifluoromethyl)piperidin-3-yl)amino)cyclohexanol] belongs > 10000 nM; to `N#Cc1ccc(N2CCC(C(=O)NCCN3CCC(F)(F)CC3)CC2)c2cccnc12` [Compound 427, 1-(8-Cyano-quinolin-5-yl)-piperidine-4-carboxylic Acid [2-(4,4-difluoro-piperidin-1-yl)-ethyl]-amide], 1000 to 10000 nM; to `N#Cc1ccc(N2C[C@@H](NC(=O)CN3CCOCC3)C[C@@H](C(F)(F)F)C2)c2nccnc12` (relative stereo) [Compound 228, cis-N-[1-(8-cyanoquinoxalin-5-yl)-5-(trifluoromethyl)piperidin-3-yl]-2-(morpholin-4-yl)acetamide], 1000 to 10000 nM.
